From PubChem BioAssay AID2060496 (Molecular Pharmacology Branch, DTP, NCI, 2025)
“And” between values parts separate entries of the source, which are not always exact repeats. Identical values can stand only once.

Tested on: 276233-004-R-J1-PDC complex spheroid viability
Experiment: Anticancer human tumor 276233-004-R-J1-PDC patient-derived colon adenocarcinoma cell line growth inhibition [GQUAD]
Conditions: for viability, T/C: stronger effect = lower value
Description: DNA G-quadruplex Stabilizer Agents in Combinations in Complex Spheroids
A high-throughput screen of multi-cell type tumor spheroids was designed to identify active combinations of DNA G-quadruplex stabilizer agents and targeted small molecules. Complex spheroids include a stromal component modeled by human endothelial cells (HUVEC) and fibroblasts modeled by human mesenchymal stem cells (MSCs). The concentration ranges selected for each drug and investigational agent were based upon clinically achievable concentrations if the clinical Cmax of the agent was known.
Compounds. The drugs and investigational agents: pidnarulex (CX-5461; NSC782164), APTO-253 (NSC789042), BRACO-19 (NSC847499), peposertib (NSC802822), ceralasertib (NSC780249), elimusertib (NSC800525), camonsertib (NSC841442), AZD-1390 (NSC803789), olaparib (NSC753686), talazoparib (NSC767125), ART-558 (NSC835418), sotorasib (NSC818433), MRTX-1133 (NSC836407), SN-38 (NSC673596), topotecan (NSC609699), etoposide (NSC141540), doxorubicin (NSC123127), gemcitabine (NSC613327), 5-fluorouracil (NSC19893), paclitaxel (NSC125973), vemurafenib (NSC761431), panobinostat (NSC761190), R-306465 (JNJ-16241199; NSC773264), adavosertib (NSC754352), TP-3654 (NSC805149), carboplatin (NSC241240), KSQ-4279 (NSC840948), and staurosporine (NSC755774) were obtained from the National Cancer Institute (NCI) Developmental Therapeutics Program Chemical Repository (34). The FDA-approved anticancer drug set is available from the NCI Developmental Therapeutics Program. […] The stock solutions were prepared in dimethyl sulfoxide (DMSO, Sigma-Aldrich, St. Louis, MO, cat. D2650) at 800-fold the tested concentration and stored at -70 degrees C prior to their use. All drugs and investigational agents were tested over a range starting from a high concentration at or near the clinical Cmax and decreasing in half-log increments. If the clinical Cmax for an agent had not been determined, the highest concentration tested was 10 microM.
2.3 Cell Culture. All cells were maintained in an incubator at 37 degrees C and 5% CO2 with 95% humidity. The PDC lines were cultured according to standard operating procedures established by the NCI PDMR. All PDCs were thawed and cultured in Matrigel-coated flasks prepared with a working solution of 1X Ham's F-12 nutrient mix, without supplementation (Invitrogen, cat. 11765054), 100 U/mL penicillin-streptomycin (Invitrogen, cat. 15140122), and 2.5% Matrigel (Corning Inc., cat. 354248) for the first three passages. The 857933-349-R-J2-PDC line was cultured in 6C/Colon 1B media, which includes advanced DMEM/F-12 (Thermo Fisher Scientific, cat. 12634028), 10 mM HEPES (Thermo Fisher Scientific, cat. 15630080), 1X GlutaMAX supplement (Thermo Fisher Scientific, cat. 35050061), 0.1 mg/mL primocin (InvivoGen, cat. ant-pm-2), 10% defined fetal bovine serum, heat inactivated (HyClone Laboratories Inc., cat. SH30070.03HI), 50% L-WRN conditioned media (ATCC, cat. CRL-3276), 1.25 mM N-Acetyl-L-cysteine (Sigma-Aldrich, cat. A9165), 10 mM nicotinamide (Sigma-Aldrich, cat. N0636), 1X B-27 supplement (Thermo Fisher Scientific, cat. 17504044), 1X N-2 supplement (Thermo Fisher Scientific, cat. 17502048), 10 microM Y-27632 dihydrochloride (Tocris Bioscience, cat. 1254), and 50 ng/mL human EGF recombinant protein (Thermo Fisher Scientific, cat. PHG0311). The 485176-168-R4-J1-PDC line was cultured in Panc media, which includes all 6C/Colon 1B media components plus 100 ng/mL human FGF-10 (Thermo Fisher Scientific, cat. 100-26), 500 nM SB-431542 (Selleckchem, cat. S1067), and gastrin (Tocris, cat. 3006).
[…]
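Further: spheroids exposed to drugs for seven days.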
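Wherever viability, T/C is given: 100% = DMSO vehicle control viability.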

**Q.** What does the source list for `Cc1[nH]c2ccccc2c1CCNCc1ccc(/C=C/C(=O)NO)cc1` + Cc1[nH]c2ccc(F)cc2c1-c1nc2c3cccnc3c3ncccc3c2[nH]1?
**A.** IC50 (curve of first compound, second compound 0.0316 µM): 102 nM; IC50 (curve of first compound, second compound 0.1 µM): 72.1 nM; IC50 (curve of first compound, second compound 0.316 µM): 45.2 nM; IC50 (curve of first compound, second compound 1 µM): 39 nM; IC50 (curve of first compound, second compound 3.16 µM): < 0.999 nM; IC50 (curve of first compound, second compound 10 µM): < 0.999 nM; viability, T/C (second compound 0.0316 µM, first compound 0.000999 µM): 82.7%; viability, T/C (second compound 0.0316 µM, first compound 0.00316 µM): 100%; viability, T/C (second compound 0.0316 µM, first compound 0.00999 µM): 82.1%; viability, T/C (second compound 0.0316 µM, first compound 0.0316 µM): 96%; viability, T/C (second compound 0.0316 µM, first compound 0.0999 µM): 50.5%; viability, T/C (second compound 0.0316 µM, first compound 0.316 µM): 13.1%; viability, T/C (second compound 0.1 µM, first compound 0.000999 µM): 76.9%; viability, T/C (second compound 0.1 µM, first compound 0.00316 µM): 84.2%; viability, T/C (second compound 0.1 µM, first compound 0.00999 µM): 62.8%; viability, T/C (second compound 0.1 µM, first compound 0.0316 µM): 68%; viability, T/C (second compound 0.1 µM, first compound 0.0999 µM): 43.9%; viability, T/C (second compound 0.1 µM, first compound 0.316 µM): 10.9%; viability, T/C (second compound 0.316 µM, first compound 0.000999 µM): 64.2%; viability, T/C (second compound 0.316 µM, first compound 0.00316 µM): 62.3%; viability, T/C (second compound 0.316 µM, first compound 0.00999 µM): 46.5%; viability, T/C (second compound 0.316 µM, first compound 0.0316 µM): 64%; viability, T/C (second compound 0.316 µM, first compound 0.0999 µM): 26.4%; viability, T/C (second compound 0.316 µM, first compound 0.316 µM): 32.4%; viability, T/C (second compound 1 µM, first compound 0.000999 µM): 58.9%; viability, T/C (second compound 1 µM, first compound 0.00316 µM): 44.6%; viability, T/C (second compound 1 µM, first compound 0.00999 µM): 65.7%; viability, T/C (second compound 1 µM, first compound 0.0316 µM): 50.8%; viability, T/C (second compound 1 µM, first compound 0.0999 µM): 37.1%; viability, T/C (second compound 1 µM, first compound 0.316 µM): 7.17%; viability, T/C (second compound 3.16 µM, first compound 0.000999 µM): 18.3%; viability, T/C (second compound 3.16 µM, first compound 0.00316 µM): 15.9%; viability, T/C (second compound 3.16 µM, first compound 0.00999 µM): 21.4%; viability, T/C (second compound 3.16 µM, first compound 0.0316 µM): 13.6%; viability, T/C (second compound 3.16 µM, first compound 0.0999 µM): 7.05%; viability, T/C (second compound 3.16 µM, first compound 0.316 µM): 6.05%; viability, T/C (second compound 10 µM, first compound 0.000999 µM): 35.8%; viability, T/C (second compound 10 µM, first compound 0.00316 µM): 45.9%; viability, T/C (second compound 10 µM, first compound 0.00999 µM): 36.5%; viability, T/C (second compound 10 µM, first compound 0.0316 µM): 39.7%; viability, T/C (second compound 10 µM, first compound 0.0999 µM): 35.3%; viability, T/C (second compound 10 µM, first compound 0.316 µM): 17.5%

**Q.** What does the source list for `Cc1[nH]c2ccc(F)cc2c1-c1nc2c3cccnc3c3ncccc3c2[nH]1`?
**A.** viability, T/C (compound 0.316 µM): 80.8% [middle of 12 runs]; viability, T/C (compound 1 µM): 73.4% [middle of 12 runs]; viability, T/C (compound 10 µM): 44.4% [middle of 12 runs]; IC50 (compound alone, run of 02/20/2024): 2.51 µM [middle of 8 runs]; IC50 (compound alone, run of 02/26/2024): 1.35 µM [middle of 4 runs]

**Q.** Which viability, T/C (compound 0.000999 µM) does the source give for `Cn1ncnc1[C@H]1c2n[nH]c(=O)c3cc(F)cc(c23)N[C@@H]1c1ccc(F)cc1` here?
**A.** The viability, T/C was 108% and 94.2% and 85.9%.

**Q.** And the viability, T/C (compound 0.00316 µM)?
**A.** The viability, T/C was 84.1% and 111% and 82.8%.

**Q.** What about the viability, T/C (compound 0.00999 µM) of the same molecule?
**A.** The viability, T/C was 97.9% and 83.5% and 81.7%.

**Q.** And the viability, T/C (compound 0.0316 µM)?
**A.** Its viability, T/C is 80% and 83.1% and 87.4%.

**Q.** What about the viability, T/C (compound 0.0999 µM) of the same molecule?
**A.** Its viability, T/C is 108% and 84.9% and 87.8%.

**Q.** What about the viability, T/C (compound 0.316 µM) of the same molecule?
**A.** The viability, T/C was 102% and 89.6% and 80.9%.

**Q.** And the IC50 (curve of compound)?
**A.** The IC50 was > 316 nM.
